# PMC11313193, “Which Constituents Determine the Antioxidant Activity and Cytotoxicity of Garlic? Role of Organosulfur Compounds and Phenolics” (International Journal of Molecular Sciences, 2024)
# Like-named read-outs stand apart in the source and are kept apart here.
# Key:
# [1] = ABTS^● decolorization assay; conditions: 30 min incubation at room temperature, absorbance at 734 nm
# Protocol: A modification of the ABTS^● decolorization assay was employed. Briefly, various volumes of solutions of the studied compounds were introduced to wells of a 96-well microplate, each prefilled 200 μL of ABTS^● solution. […] The drop in absorbance after 30 min incubation at room temperature was read as a measure of the antioxidant activity.
# (§1) All assays were standardized with respect to Trolox. The antioxidant activity was calculated in each case as a ratio of the slope of the dependence of absorbance change on the concentration of a studied compound to the slope of the dependence of absorbance change of standard samples concerning Trolox on the concentration of Trolox. Antioxidant activities were expressed in moles of Trolox equivalents (TE)/mol of a studied compound, as described previously.
# [2] = DPPH^● decolorization assay; conditions: 30 min at ambient temperature in the dark, absorbance at 517 nm
# Protocol: The assay was performed as described in a previous article. Briefly, increasing volumes of solutions of the studied compounds were introduced to wells of a 96-well microplate, each with 200 μL of 0.3 mM DPPH^● solution in methanol. The reaction was allowed to proceed for 30 min at ambient temperature in the dark, and absorbance at 517 nm was read. The absorbance decrease was a measure of the antioxidant activity.
# as §1
# [3] = Ferric reducing antioxidant power (FRAP) assay; conditions: 30 min at ambient temperature, pH 3.6, absorbance at 593 nm
# Protocol: The method proposed by Benzie and Strain [91] was employed with a slight modification. Briefly, increasing volumes of solutions of the studied compounds were added to wells of a 96-well microplate prefilled with 200 μL of the working solution composed of 0.3 M acetate buffer, pH 3.6 (10 volumes), 10 mM 2,4,6-tris(2-pyridyl)-s-triazine (TPTZ), in 40 mM HCl (1 volume) and 20 mM FeCl3 (1 volume), was prepared immediately before use. After 30 min incubation at ambient temperature and the absorbance of the Fe^2+-TPTZ complex was read at 593 nm.
# as §1
# [4] = system: SKOV-3 ovarian cancer cells; assay: Cytotoxicity (Neutral Red), SKOV-3 cells; type: cell-based, human; conditions: for IC50: Homo sapiens, read-out: IC50 SKOV-3; for Concentration at which viability of SKOV-3 cells was lowered: p < 0.05
# Protocol: (§2) The PEO1 cells, SKOV-3 cells, and MRC-5 cells were grown at 37 °C and 5% CO2 in RPMI + GlutaMAX medium, McCoy’s 5A medium, and the DMEM + GlutaMAX medium, respectively. The media were supplemented with 10% heat-inactivated fetal calf serum and penicillin/streptomycin. The cell viability was evaluated using the Trypan Blue exclusion test.
# (§3) In the cytotoxicity experiments, cells were grown in wells of sterile 96-well plates. The seeding density was 1 × 10^4 for SKOV-3 and MRC-5 cells and 1.5 × 10^4 for PEO1 cells. The cells were allowed to grow in the incubator for 24 h. Then, the medium was removed and new medium with an examined compound was added. The stock solutions of the compounds studied diluted with the appropriate cell medium were filtered before the addition to the cells using 0.22 µm filters. No more than 0.02% of DMSO was present in the media, and it had no discernible impact on the treated cells. Cells not exposed to any compound served as a control. After another 24 h incubation, the medium was gently aspirated, and the wells were added with 2% sterile Neutral Red solution (100 µL). The plates were then incubated (37 °C, 5% CO2) for one hour. The Neutral Red solution was aspirated, and the wells were washed two times with warm (37 °C) PBS. Subsequently, 100 µL of a permeabilization mixture (water/ethanol/glacial acetic acid, 50/49/1, v/v/v) was introduced to each well. The plates were shaken at 700 rpm for 20 min and absorbance was read at a wavelength of 540 nm against 620 nm.
# [5] = system: PEO1 ovarian cancer cells; assay: Cytotoxicity (Neutral Red), PEO1 cells; type: cell-based, human; conditions: for Concentration at which viability of PEO1 cells was lowered: p < 0.05; for IC50: Homo sapiens, read-out: IC50 PEO1
# Protocol: as §2, §3
# MRC-5 fibroblasts = assay: Cytotoxicity (Neutral Red), MRC-5 fibroblasts; type: cell-based, human; conditions: for Concentration at which viability of MRC-5 cells was lowered: p < 0.05; for IC50: Homo sapiens, read-out: IC50 MRC-5
# Protocol: as §2, §3
# [6] = system: HT-1080 fibrosarcoma cells; set-up: method as in PMID 21116690; conditions: read-out: Concentration decreasing the viability of HT-1080 cells (by 50%); cited from earlier work
# MDA-MB-231 cells [7] = system: MDA-MB-231 cells; set-up: method as in PMID 29048370; conditions: read-out: Concentration decreasing the viability of MDA-MB-231 cells (by 50%); cited from earlier work
# [8] = system: cervical cancer HeLa cells; set-up: method as in PMID 21199742; conditions: after 24 h exposure; read-out: Concentration decreasing the viability of HeLa cells by 50%; cited from earlier work
# MDA-MB-231 cells [9] = system: MDA-MB-231 cells; set-up: method as in PMID 27177074; conditions: 100 μM; cited from earlier work
# [10] = system: PC-3 prostate cancer cells; set-up: method as in PMID 26124008; conditions: read-out: Concentration decreasing viability of PC-3 cells to 50%; cited from earlier work
# [11] = system: LNCaP prostate cancer cells; set-up: method as in PMID 26124008; conditions: read-out: Concentration decreasing viability of LNCaP cells to 50%; cited from earlier work
# osteosarcoma 143B cells = system: osteosarcoma 143B cells; set-up: method as in PMID 27158383; conditions: after 48 h; read-out: Concentration decreasing viability of 143B cells to 50%; cited from earlier work
# osteosarcoma MG63 cells = system: osteosarcoma MG63 cells; set-up: method as in PMID 27158383; conditions: after 48 h; read-out: Concentration decreasing viability of MG63 cells to 50%; cited from earlier work
# [12] = system: HGC-27 gastric cancer cell line; set-up: method as in PMID 2298289; conditions: range given for four gastric cancer cell lines; read-out: IC50 HGC-27 gastric cancer cells; cited from earlier work
# [13] = system: NUGC-2 gastric cancer cell line; set-up: method as in PMID 2298289; conditions: range given for four gastric cancer cell lines; read-out: IC50 NUGC-2 gastric cancer cells; cited from earlier work
# [14] = system: MKN-28 gastric cancer cell line; set-up: method as in PMID 2298289; conditions: range given for four gastric cancer cell lines; read-out: IC50 MKN-28 gastric cancer cells; cited from earlier work
# [15] = system: MKN-7 gastric cancer cell line; set-up: method as in PMID 2298289; conditions: range given for four gastric cancer cell lines; read-out: IC50 MKN-7 gastric cancer cells; cited from earlier work
# [16] = system: A549 human adenocarcinomic alveolar basal epithelial cells; set-up: method as in PMID 14688022; conditions: cited from earlier work
# [17] = system: colorectal cancer CACO-2 cells; set-up: method as in PMID 25829782; conditions: cited from earlier work
# [18] = system: colorectal cancer SW-620 cells; set-up: method as in PMID 25829782; conditions: cited from earlier work
# MCF-7 cells = system: MCF-7 cells; set-up: method as in PMID 24223637; conditions: 40 μg/mL (132 μM); cited from earlier work
# [19] = system: breast cancer HCC1937 cells; set-up: method as in PMID 16619521; conditions: 100 μM; cited from earlier work
# [20] = system: P388-D1 mouse lymphoid cancer cells; set-up: method as in PMID 8593472; conditions: cited from earlier work
# [21] = system: HL-60RG human promyelocytic leukemia cells; set-up: method as in PMID 8593472; conditions: cited from earlier work
# [22] = system: HeLa human epithelial carcinoma cells; set-up: method as in PMID 8593472; conditions: cited from earlier work
# [23] = system: dRLh-84 rat hepatoma cells; set-up: method as in PMID 8593472; conditions: cited from earlier work
# [24] = system: PLC/PRF/5 human hepatoma cells; set-up: method as in PMID 8593472; conditions: cited from earlier work
# [25] = system: KB human epidermoid carcinoma cells; set-up: method as in PMID 8593472; conditions: cited from earlier work
# [26] = system: HeLa cervical cancer cells; set-up: method as in PMID 24843386; conditions: range given for HeLa and HTB-35, converted; cited from earlier work
# [27] = system: HTB-35 cervical cancer cells; set-up: method as in PMID 24843386; conditions: range given for HeLa and HTB-35, converted; cited from earlier work
# [28] = system: DUI45 prostate cancer cells; set-up: method as in PMID 19589639; conditions: 48 h exposure, cited from earlier work
# [29] = system: LNCaP prostate cancer cells; set-up: method as in PMID 19589639; conditions: 48 h exposure, cited from earlier work
# [30] = system: PC-3 prostate cancer cells; set-up: method as in PMID 19589639; conditions: 48 h exposure, cited from earlier work
# [31] = SK-OV-3, 24 h exposure, Neutral Red
# [32] = PEO1, 24 h exposure, Neutral Red
compound,measurement,setting,value
"O=C(O)/C=C/c1ccc(O)c(O)c1 [Caffeic acid, caffeic acid]","Antioxidant activity, ABTS^● Decolorization",[1],0.771 ± 0.066 mol Trolox equivalents (TE)/mol compound
same,"Antioxidant activity, DPPH^● Decolorization",[2],0.001 ± 0.006 mol Trolox equivalents (TE)/mol compound
same,"Antioxidant activity, FRAP",[3],0.019 ± 0.002 mol Trolox equivalents (TE)/mol compound
same,Concentration range with no significant decrease in viability of SKOV-3 cells,[4]; 24 h exposure,up to 1000 µM
same,IC50,[4]; [31],1320 µM
same,Concentration at which viability of PEO1 cells was lowered,[5]; 24 h exposure,300 to 1000 µM
same,IC50,[5]; [32],245 µM
same,Concentration at which viability of MRC-5 cells was lowered,MRC-5 fibroblasts; 24 h exposure,1000 µM
same,IC50,[6],30 µM
same,IC50,MDA-MB-231 cells [7],151 µM
same,IC50,[8],~2000 µM
"COc1cc(/C=C/C(=O)O)ccc1O [Ferulic acid, ferulic acid]","Antioxidant activity, ABTS^● Decolorization",[1],1.409 ± 0.096 mol Trolox equivalents (TE)/mol compound
same,"Antioxidant activity, DPPH^● Decolorization",[2],0.185 ± 0.070 mol Trolox equivalents (TE)/mol compound
same,"Antioxidant activity, FRAP",[3],0.554 ± 0.017 mol Trolox equivalents (TE)/mol compound
same,Concentration range with no significant decrease in viability of SKOV-3 cells,[4]; 24 h exposure,0 to 1000 µM
same,Concentration range with no significant decrease in viability of PEO1 cells,[5]; 24 h exposure,0 to 1000 µM
same,Concentration range with no significant decrease in viability of MRC-5 cells,MRC-5 fibroblasts; 24 h exposure,0 to 1000 µM
same,Viability of MDA-MB-231 cells (decreased to),MDA-MB-231 cells [9],about 75%
same,IC50,[10],300 µM
same,IC50,[11],500 µM
same,IC50,osteosarcoma 143B cells,60 µM
same,IC50,osteosarcoma MG63 cells,66 µM
O=c1c(O)c(-c2ccc(O)c(O)c2)oc2cc(O)cc(O)c12 [Quercetin],"Antioxidant activity, ABTS^● Decolorization",[1],1.138 ± 0.029 mol Trolox equivalents (TE)/mol compound
same,"Antioxidant activity, DPPH^● Decolorization",[2],0.384 ± 0.040 mol Trolox equivalents (TE)/mol compound
same,"Antioxidant activity, FRAP",[3],1.350 ± 0.201 mol Trolox equivalents (TE)/mol compound
same,Concentration at which viability of SKOV-3 cells was lowered,[4]; 24 h exposure,75 to 200 µM
same,IC50,"[4]; SK-OV-3, 24 h",272 µM
same,Concentration at which viability of PEO1 cells was lowered,[5]; 24 h exposure,75 to 200 µM
same,IC50,"[5]; PEO1, 24 h",100 µM
same,Concentration range with no significant decrease in viability of MRC-5 cells,MRC-5 fibroblasts; 24 h exposure,up to 200 µM
same,IC50,"MRC-5 fibroblasts; MRC5, 24 h",111 µM
same,IC50,[12],32 to 55 µM
same,IC50,[13],32 to 55 µM
same,IC50,[14],32 to 55 µM
same,IC50,[15],32 to 55 µM
same,IC50,[16],~40 µM
same,IC50,[17],35 µM
same,IC50,[18],20 µM
same,Viability of MCF-7 cells (diminished to),MCF-7 cells,ca. 70%
same,Viability of HCC1937 cells (diminished to),[19],ca. 40%
"O=C(O)c1cc(O)c(O)c(O)c1 [Gallic acid, gallic acid]","Antioxidant activity, ABTS^● Decolorization",[1],0.972 ± 0.028 mol Trolox equivalents (TE)/mol compound
same,"Antioxidant activity, DPPH^● Decolorization",[2],0.178 ± 0.023 mol Trolox equivalents (TE)/mol compound
same,"Antioxidant activity, FRAP",[3],0.332 ± 0.001 mol Trolox equivalents (TE)/mol compound
same,Concentration at which viability of SKOV-3 cells was lowered,[4]; 24 h exposure,200 to 1000 µM
same,IC50,[4]; [31],115 µM
same,Concentration at which viability of PEO1 cells was lowered,[5]; 24 h exposure,200 to 1000 µM
same,IC50,[5]; [32],19 µM
same,Concentration at which viability of MRC-5 cells was lowered,MRC-5 fibroblasts; 24 h exposure,200 to 1000 µM
same,IC50,"MRC-5 fibroblasts; MRC5, 24 h exposure, Neutral Red",243 µM
same,IC50 P388-D1 cells,[20],4.8 µg/mL
same,IC50,[20]; converted from μg/mL,27 µM
same,IC50 HL-60RG cells,[21],5.4 µg/mL
same,IC50,[21]; converted from μg/mL,30 µM
same,IC50 HeLa cells,[22],6.1 µg/mL
same,IC50,[22]; converted from μg/mL,34 µM
same,IC50 dRLh-84 cells,[23],6.2 µg/mL
same,IC50,[23]; converted from μg/mL,34 µM
same,IC50 PLC/PRF/5 cells,[24],6.6 µg/mL
same,IC50,[24]; converted from μg/mL,37 µM
same,IC50 KB cells,[25],13.2 µg/mL
same,IC50,[25]; converted from μg/mL,73 µM
same,IC50,[26],111 to 139 µM
same,IC50,[27],111 to 139 µM
same,IC50,[28]; converted,89 µM
same,IC50 DUI45 prostate cancer cells,[28],16 µg/mL
same,IC50,[29]; converted,117 µM
same,IC50 LNCaP prostate cancer cells,[29],21 µg/mL
same,IC50,[30]; converted,89 µM
same,IC50 PC-3 prostate cancer cells,[30],16 µg/mL
